Source: patent US20010005720A1, “METHOD OF TREATING CHRONIC P[…] SCARRING DISEASES” (U.S.A. AS REPRESENTED BY THE SECRETARY DEPARTMENT OF HEALTH …, priority 1995, published 2001)

How the values were obtained:
smooth muscle cell = details: Paul et al. 1987; Wardle; cited from earlier work
[1] = system: normal mesangial cell layers; assay: mRNA levels of selected molecules in normal mesangial cell layers exposed to PPS (reverse transcription); assay type: cell-based; details: PPS 100 μg/ml; day 1 compared with days 3 and 5
From the text: The control was β-actin, which was unchanged, consistent with the absence of proliferation in the treated cells.

Watanabe rabbits [2] = assay: Watanabe rabbits Study B: oral PPS in drinking water, aortic intima/media histology; assay type: in vivo, rabbit; details: oral about 30 mg/kg/day in drinking water
Method: Twenty Watanabe rabbits were divided into four groups of five each, Groups A through D. All of the rabbits were fed the same high cholesterol diet (0.5% cholesterol). The animals of Groups A and B were given tap water to drink, while the animals of Groups C and D were given tap water containing 0.5 mg/mL of PPS sodium (Elmiron®). Based on observations of pre-study water consumption by the animals, the total daily dose of PPS sodium consumed by each animal in the treatment groups was about 30 mg/kg.
The animals of Groups A and C were euthanized and necropsied on day 50 of the study and their aortae examined.
The rabbits of Groups B and D were euthanized and necropsied on day 64 of the study. The aortae of these groups were examined histologically and the respective cross-sectional areas of the intimal and medial layers in various aortal branches were measured.

normal mesangial cells [3] = assay: DNA synthesis by [3H]thymidine incorporation in normal mesangial cells; assay type: cell-based; details: day one (24 hours); PPS 5-100 μg/ml; 20% fetal bovine serum
Method: (§1) Normal mesangial cells (8) were plated in basal medium plus 20% fetal bovine serum (Gibco, Grand Island, N.Y.) in 24-well plates (Nunc, PGC Scientific Corp., Gaithersburg, Md.) at a density of 2−2.5×10^4 cells/well. At 24 hours the medium was discarded, cells were washed twice with PBS and incubated for 24-72 h in serum-free medium with 0.1% bovine serum albumin (RIA grade, Sicjma). The medium was replaced with fresh basal medium plus 20% fetal bovine serum with or without 5-100 μg/ml of PPS or compared to standard heparin (100 μg/ml). Cells of duplicate wells were trypsinized and counted in an Elzone® cell counter (Particle Data Inc., Elmhurst, Ill.) at days +3 and +5. In parallel wells, thymidine incorporation was determined by adding 1 μCi/well of [^3H] thymidine ([methyl-^3H] thymidine); 2.0 Ci/mM; DuPont NEN, Boston, Mass.). Counts were determined at day 1 or at day 3.

[4] = Wardle 1992; cited from earlier work
[5] = Paul et al. 1987; Wardle; cited from earlier work
normal mesangial cells [6] = assay: Cell growth (cell counts) in normal mesangial cells; assay type: cell-based
Method: as §1

GH transgenic mice = assay: GH transgenic mice, oral PPS sodium in drinking water; glomerular collagen by competitive PCR; assay type: in vivo, mouse; details: about 100 mg/kg, 10-12 weeks
Method: Six GH mice were treated for 10-12 weeks with oral PPS sodium (Elmiron®, Baker Norton Pharmaceuticals, Inc.) in their drinking water and six age-matched GH mice received tap water for the same duration. The amount of PPS sodium in the drinking water was about 100 mg/kg of animal body weight.
Glomeruli were isolated by microdissection in the presence of RNase inhibitors. The left kidney was perfused with saline followed by a collagenase solution containing soluble RNase inhibitors. The lower pole was removed prior to collagenase perfusion and snap frozen on dry ice for zymography. […]
Primers for mouse α1IV and α1I collagen, α smooth muscle cell actin, β-actin, laminin B1, tenascin, 92 kDa metalloproteinase and 72 kDa metalloproteinase mRNAs, and for bovine growth hormone genomic DNA, were synthesized on a PCR-Mate (Applied Biosystems, Foster City, Calif.). […] Primer specificity for mRNA was determined by omitting the reverse transcriptase enzyme. […] This permitted a rapid, non-quantitative assessment of mRNA levels. Thereafter, competitive PCR assays were utilized to measure α1IV collagen (and the ratio of α1IV collagen to GAPDH enzyme was calculated to normalize the data between animals), PDGF-B, α smooth muscle cell actin, β-actin, and laminin B1 cDNAs by constructing a cDNA mutant for each molecule, with a small internal deletion or a new restriction enzyme site. […]

Watanabe rabbits [7] = assay: Watanabe rabbits Study A: subcutaneous PPS, morphometry of aortic lesions; assay type: in vivo, rabbit
Method: Twelve Watanabe rabbits were divided into two groups of six each (Group A and Group B) and fed a high cholesterol diet (0.5% cholesterol). The animals of Group A were treated daily with normal saline subcutaneously, while the animals of Group B were treated daily with 10 mg/kg of PPS sodium (Elmiron®) subcutaneously.
Four of the PPS-treated animals (Group B) died prior to completion of the study, one on day 22 and three between day 80 and day 86. On day 89, the animals of Group A and the two remaining animals of Group B were euthanized and necropsied and their tissues evaluated, particularly sections from different major branches of the aorta.

[8] = 10 mg/kg/day s.c., day 89, 0.5% cholesterol diet
[9] = PPS vs control, 10 mg/kg/day s.c., day 89
[10] = all aortal cross-sections examined, 10 mg/kg/day s.c.

Pentosan polysulfate [PPS]
smooth muscle cell proliferation (smooth muscle cell): inhibits
92 kDa enzyme activity increase [1]: more than 50%
TGF-β mRNA reduction [1]: 50%
type I collagen mRNA [1]: substantially decreased
type IV collagen mRNA [1]: no changes
β-actin mRNA (control) [1]: unchanged
atherosclerotic plaque development in intima, visual, vs control (Watanabe rabbits [2]; day 50, Group C vs Group A): less atherosclerotic plaque development
mean intimal cross-sectional area in each aortal branch vs untreated (Watanabe rabbits [2]; day 64, Group D vs Group B): substantially less
ratio of intima to medial areas in every aortal branch vs untreated (Watanabe rabbits [2]; day 64, Group D vs Group B): lower
concentration at which the maximum dose-response plateaued (DNA synthesis, tritiated thymidine incorporation) (normal mesangial cells [3]): 50 µg/mL
anticoagulant potency relative to heparin [4]: about one-fifteenth
partial thromboplastin time [4]: prolongs
hyperlipidemia [5]: decreases
potency relative to native heparin on a molar basis (cell growth inhibition) (normal mesangial cells [6]; PPS 100 μg/ml vs heparin 100 μg/ml, three and five days): roughly twice
concentration of maximum inhibitory response (cell number) (normal mesangial cells [6]; day three, PPS 5-100 μg/ml, 20% fetal bovine serum): 25 µg/mL
mean type IV collagen/GAPDH ratio in glomeruli relative to untreated (control) group (GH transgenic mice): less than half
scarring-type collagen present in glomeruli vs untreated animals (confirmed by histology and immunofluorescent microscopy) (GH transgenic mice): considerably less
treated animals that died prior to completion of the study (Watanabe rabbits [7]; 10 mg/kg daily subcutaneously, group of six, one on day 22, three between day 80 and 86, high cholesterol diet): Four
Plaque area, Abdominal Aorta (Watanabe rabbits [7]; [8]): 0.04 cm^2
Plaque area, Ascending Aorta (Watanabe rabbits [7]; [8]): 0.59 cm^2
Smooth Muscle Layer area, Abdominal Aorta (Watanabe rabbits [7]; [8]): 0.303 cm^2
Smooth Muscle Layer area, Ascending Aorta (Watanabe rabbits [7]; [8]): 0.243 cm^2
Smooth Muscle Layer area, Thoracic Aorta (Watanabe rabbits [7]; [8]): 0.334 cm^2
Smooth Muscle/Plaque, Abdominal Aorta (Watanabe rabbits [7]; [8]): 7.58
Smooth Muscle/Plaque, Ascending Aorta (Watanabe rabbits [7]; [8]): 4.12
Smooth Muscle/Plaque, Thoracic Aorta (Watanabe rabbits [7]; [8]): 1.184
plaque in cross-section of abdominal aorta (FIG. 11 photograph) (Watanabe rabbits [7]; 10 mg/kg/day s.c., high cholesterol diet): almost no sign of plaque
Fold decrease in Plaque Size, Abdominal Aorta (Watanabe rabbits [7]; [9]): 10.2×
Fold decrease in Plaque Size, Ascending Aorta (Watanabe rabbits [7]; [9]): 6.8×
Fold decrease in Plaque Size, Thoracic Aorta (Watanabe rabbits [7]; [9]): 2.5×
plaque deposits in comparison with control rabbits (Watanabe rabbits [7]; [10]): much smaller
ratio of smooth muscle layer to plaque, times higher than control rabbits (Watanabe rabbits [7]; [10]): ≤ 6.8 times
